Assay results as given in patent publication US20240358847A1, “TROP2 BINDERS AND CONJUGATES THEREOF” (MERCK SHARP & DOHME LLC, priority 2023, published 2024).
pEC50: −log10 of the molar value.

Legend:
[1] = test system: BxPC-3 cells; experiment: On-Cell ELISA binding, BxPC3 cells (TROP2 high); assay type: cell-based, human; set-up: AUC (BxPC-3): unit not given beside the values; conditions: for pEC50: On-Cell ELISA, TROP2 high cells; for ΔAUC: AUC (BxPC-3) minus AUC (MDA-MB-231-KWL); for AUC (BxPC-3): area under On-Cell ELISA binding curve; for ΔAUC/AUC (BxPC-3): differential BxPC3 vs MDA-MB-231-KWL
Procedure: (§1) Cell lines expressing TROP2.
(§2) Cells were plated in duplicate onto 96-well plates, and primary antibody was diluted in cell culture medium with a starting concentration of 30 μg/mL (200 nM) with a dilution factor of 1:5. After 3× wash, secondary antibody was added for 1 hour at 1 ug/ml, washed three times and absorbance was measured at 450 nm. Data was plotted and analyzed. EC50 ([…]) was measured along with area under the curve (AUC) for each cell line.

[2] = test system: MDA-MB-231-KWL cells; experiment: On-Cell ELISA binding, MDA-MB-231-KWL cells (TROP2 low); assay type: cell-based; set-up: AUC (MDA-MB-231-KWL): unit not given beside the values; conditions: for pEC50: read-out: MDA-MB-231-KWL EC50, On-Cell ELISA, TROP2 low cells; for AUC (MDA-MB-231-KWL): area under On-Cell ELISA binding curve
Procedure: as §1, §2

| Substance | pEC50 [1] | pEC50 [2] | also measured |
| --- | --- | --- | --- |
| mAb_LC_Hm_F29G: Sacituzumab HC F29G mutein, Sacituzumab LC | 9.49 | 9.35 | – |
| mAb_LC_Hm_F101E: Sacituzumab HC F101E mutein, Sacituzumab LC | 9.32 | 8.57 | – |
| mAb_LC_Hm_F101T: Sacituzumab HC F101T mutein, Sacituzumab LC | 9.47 | 9.06 | – |
| mAb_LC_Hm_F108Q: Sacituzumab HC F108Q mutein, Sacituzumab LC | 9.50 | 9.44 | – |
| mAb_LC_Hm_F108S: Sacituzumab HC F108S mutein, Sacituzumab LC | 9.49 | 9.19 | – |
| mAb_LC_Hm_F108T: Sacituzumab HC F108T mutein, Sacituzumab LC | 9.17 | 8.92 | – |
| mAb_LC_Hm_G33S: Sacituzumab HC G33S mutein, Sacituzumab LC | 8.65 | – | – |
| mAb_LC_Hm_N31P: Sacituzumab HC N31P mutein, Sacituzumab LC | 9.43 | 8.94 | – |
| mAb_LC_Hm_S103T: Sacituzumab HC S103T mutein, Sacituzumab LC | – | – | ΔAUC [1]: 171.04; AUC (BxPC-3) [1]: 204.7; ΔAUC/AUC (BxPC-3) [1]: 0.538; AUC (MDA-MB-231-KWL) [2]: 33.66 |
| mAb_LC_Hm_W106A: Sacituzumab HC W106A mutein, Sacituzumab LC | 8.78 | – | – |
| mAb_LC_Hm_W106H: Sacituzumab HC W106H mutein, Sacituzumab LC | 8.93 | – | ΔAUC [1]: 192.47; AUC (BxPC-3) [1]: 215.2; ΔAUC/AUC (BxPC-3) [1]: 0.605; AUC (MDA-MB-231-KWL) [2]: 22.73 |
| mAb_LC_Hm_W106L: Sacituzumab HC W106L mutein, Sacituzumab LC | 9.49 | – | – |
| mAb_LC_Hm_Y32E: Sacituzumab HC Y32E mutein, Sacituzumab LC | 9.38 | 8.80 | – |
| mAb_LC_Hm_Y105S: Sacituzumab HC Y105S mutein, Sacituzumab LC | 9.51 | – | – |
| mAb_LC_Hm_Y107N: Sacituzumab HC Y107N mutein, Sacituzumab LC | 9.15 | 8.73 | – |
| mAb_Lm_A32P_HC: Sacituzumab LC A32P mutein, Sacituzumab HC | 9.04 | – | – |
| mAb_Lm_A32Q_HC: Sacituzumab LC A32Q mutein, Sacituzumab HC | 7.73 | – | – |
| mAb_Lm_H91K_HC: Sacituzumab LC H91K mutein, Sacituzumab HC | 9.05 | 8.71 | – |
| mAb_Lm_H91Y_HC: Sacituzumab LC H91Y mutein, Sacituzumab HC | 8.45 | – | – |
| mAb_Lm_Q89V_HC: Sacituzumab LC Q89V mutein, Sacituzumab HC | 8.78 | 8.07 | – |
| mAb_Lm_S30R_HC: Sacituzumab LC S30R mutein, Sacituzumab HC | 9.16 | – | – |
| mAb_Lm_S50L_HC: Sacituzumab LC S50L mutein, Sacituzumab HC | 7.62 | – | – |
| mAb_Lm_Y53R_HC: Sacituzumab LC Y53R mutein, Sacituzumab HC | 9.45 | 9.26 | – |
| mAb_Lm_Y92A_HC: Sacituzumab LC Y92A mutein, Sacituzumab HC | 8.04 | – | – |
| mAb_Lm_Y92E_HC: Sacituzumab LC Y92E mutein, Sacituzumab HC | 8.16 | – | – |
| mAb_Lm_Y92N_HC: Sacituzumab LC Y92N mutein, Sacituzumab HC | 9.08 | – | – |

Now from value to substance, other results behind:

| pEC50 [1] | pEC50 [2] | Substance | also measured |
| --- | --- | --- | --- |
| 9.66 | 9.11 | mAb_LC_Hm_G33I: Sacituzumab HC G33I mutein, Sacituzumab LC | – |
| 9.67 | – | mAb_LC_Hm_S104D: Sacituzumab HC S104D mutein, Sacituzumab LC | – |
| 9.80 | 9.87 | mAb_Lm_D28H_HC: Sacituzumab LC D28H mutein, Sacituzumab HC | – |
| 9.74 | 9.66 | mAb_Lm_I93G_HC: Sacituzumab LC I93G mutein, Sacituzumab HC | – |
| 9.65 | 9.25 | mAb_Lm_S50T_HC: Sacituzumab LC S50T mutein, Sacituzumab HC | – |
| 9.63 | 9.43 | mAb_Lm_T94F_HC: Sacituzumab LC T94F mutein, Sacituzumab HC | – |
| 9.55 | – | mAb_Lm_V29R_HC: Sacituzumab LC V29R mutein, Sacituzumab HC | – |
| 9.62 | 8.31 | mAb_Lm_Y53D_HC: Sacituzumab LC Y53D mutein, Sacituzumab HC; HC SEQ ID NO: 11, LC SEQ ID NO: 13 | – |
| 9.65 | 9.07 | mAb_Lm_Y53N_HC: Sacituzumab LC Y53N mutein, Sacituzumab HC | – |
| 9.66 | 9.20 | mAb_Lm_Y53P_HC: Sacituzumab LC Y53P mutein, Sacituzumab HC | – |
| 9.55 | 9.52 | mAb_Lm_Y53S_HC: Sacituzumab LC Y53S mutein, Sacituzumab HC | – |
| 9.65 | 9.46 | mAb_Lm_Y53V_HC: Sacituzumab LC Y53V mutein, Sacituzumab HC | – |
